From PubChem BioAssay (NCI)
“And” between values parts separate entries of the source, which are not always exact repeats. Equal entries are not always repeated.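 96-well plates; 48 h exposure; 5 concentrations. Endpoints by linear interpolation between flanking doses. Not reached: highest tested concentration assigned. GI50: concentration for 50% inhibition of growth. TGI denotes the concentration required for complete inhibition of growth.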

Assays:
Assay in all cases: NCI-60 cell line screen, 48 h
[1] = tested on: SK-OV-3 ovarian
[2] = tested on: COLO 205 colon
[3] = tested on: LOX IMVI melanoma
[4] = tested on: CAKI-1 renal
[5] = tested on: EKVX NSCLC
[6] = tested on: SK-MEL-5 melanoma
[7] = tested on: K-562 leukemia
[8] = tested on: HCT-15 colon
[9] = tested on: CCRF-CEM leukemia
[10] = tested on: MOLT-4 leukemia

SMILES | GI50 [1] | TGI [1] | GI50 [2] | TGI [2] | GI50 [3] | TGI [3] | GI50 [4] | TGI [4] | GI50 [5] | TGI [5] | GI50 [6] | TGI [6] | GI50 [7] | TGI [7] | GI50 [8] | TGI [8] | GI50 [9] | TGI [9] | GI50 [10] | TGI [10]
CS(=O)(=O)CCNCc1cc(-c2cc3c(Nc4ccc(OCc5cccc(F)c5)c(Cl)c4)ncnc3s2)cs1 | 1.04 µM | > 19.6 µM | 9.61 µM | > 25 µM | 5.56 µM | 16.3 µM | 4.79 µM | > 25 µM | 3.42 µM | > 25 µM | 7.09 µM | > 25 µM | 6.25 µM | 17.8 µM | 5.55 µM | > 20.9 µM | 11 µM | > 25 µM | 8.9 µM | > 25 µM
Cc1nc(N)nc2c1CCC(O)S2 (stereo not drawn) | 11.3 µM | 25.6 µM | 5.31 µM | 16.7 µM | 10.4 µM | 24.5 µM | 33.7 µM | > 100 µM | 24.8 µM | 93.2 µM | 12.5 µM | 26.3 µM | 5.18 µM | > 100 µM | 26.3 µM | > 100 µM | 4.29 µM | 69.1 µM | 2.91 µM | 8.36 µM
COc1cc2ncn(-c3cc(OCc4ccccc4C(F)(F)F)c(C(=O)N(C)C)s3)c2cc1OC | > 16 µM | > 25 µM | > 16.8 µM | > 25 µM | > 25 µM | > 25 µM | > 25 µM | > 25 µM | > 25 µM | > 25 µM | 6.7 µM | > 13.1 µM | > 21.3 µM | > 25 µM | > 25 µM | > 25 µM | > 22.1 µM | > 25 µM | > 25 µM | > 25 µM
NCCSSCCN | – | > 100 µM | – | > 100 µM | – | > 100 µM | – | > 100 µM | – | > 100 µM | – | > 100 µM | – | > 100 µM | – | > 100 µM | – | > 100 µM | – | > 100 µM
CC1=Nc2c(ccc3c2C(=O)c2ccccc2C3=O)NC(c2cccc3c2CCC3)C1 (stereo not drawn) | – | > 100 µM | – | > 100 µM | – | > 100 µM | – | > 96.8 µM | – | > 100 µM | – | > 100 µM | – | > 100 µM | – | > 100 µM | – | > 100 µM | – | > 100 µM
CN(CCCCCl)P(=O)(OCCS(=O)(=O)CC(NC(=O)CCC(N)C(=O)O)C(=O)NC(C(=O)O)c1ccccc1)OCC1OC(n2ccc(N)nc2=O)C(F)(F)C1O (stereo not drawn) | 0.784 µM | > 100 µM | 0.912 µM | > 100 µM | 0.467 µM | > 100 µM | 0.0438 µM | 5.8 µM | 11.4 µM | > 100 µM | 0.484 µM | > 100 µM | 1.58 µM | > 100 µM | 8.92 µM | > 100 µM | 0.0897 µM | > 100 µM | 0.146 µM | > 70.1 µM
CC1=C[C@H]2c3c([nH]c4ccccc34)C(c3c[nH]c4ccccc34)[C@H]2CC1 (stereo partly drawn) | – | 26.6 µM | – | 13 µM | – | 5.83 µM | – | 26.3 µM | – | 29.7 µM | – | 28 µM | – | 12.7 µM | – | 18.8 µM | – | 10.9 µM | – | 5.89 µM
O=C(Cc1nc2ccccc2c(=O)n1-c1ccccc1Cl)c1ccncc1 | – | > 100 µM | – | > 100 µM | – | > 100 µM | – | > 100 µM | – | > 100 µM | – | > 100 µM | – | > 100 µM | – | > 100 µM | – | > 100 µM | – | > 100 µM
O=[N+]([O-])c1cc(Cl)c2[nH]c3c(Cl)cc([N+](=O)[O-])cc3c2c1 | 0.468 µM | 5.8 µM | 0.469 µM | 1.99 µM | 0.308 µM | > 42 µM | 0.209 µM | 0.752 µM | 0.244 µM | > 27.1 µM | 0.129 µM | 0.651 µM | 0.243 µM | > 100 µM | 0.355 µM | > 100 µM | 0.391 µM | 24.1 µM | 0.329 µM | > 100 µM
CC1CCC2(NC1)OC1CC3C4CC=C5CC(O)CCC5(C)C4CCC3(C)C1C2C (stereo not drawn) | – | 69.2 µM and 38.6 µM | – | > 100 µM | 19.9 µM and 4.93 µM | 57.3 µM and > 63.8 µM | 25.5 µM and 11.2 µM | 71.6 µM and 33 µM | – | > 100 µM | 59 µM and 27.3 µM | > 100 µM | – | > 100 µM | – | > 100 µM | – | 40 µM and 41.5 µM | – | 55.5 µM and 59.5 µM
Cc1nc(-c2ccccc2)n2nc(NCCCN3CCOCC3)ncc12 | 6.1 µM | 17.9 µM | 19.1 µM | > 25 µM | 15.1 µM | > 25 µM | 6.86 µM | > 25 µM | > 25 µM | > 25 µM | > 16.7 µM | > 25 µM | > 25 µM | > 25 µM | 12.8 µM | > 25 µM | > 25 µM | > 25 µM | > 25 µM | > 25 µM
Cc1ncc(C(=O)Nc2ccc(CN3CCN(C)CC3)c(C(F)(F)F)c2)cc1C#Cc1cnc2cccnn12 | 1.63 µM | 7.19 µM | 0.2 µM | 1.31 µM | 0.183 µM | 0.672 µM | 0.365 µM | 2.82 µM | 0.683 µM | 2.9 µM | 0.595 µM | 1.26 µM | 0.005 µM | 50 µM | 0.593 µM | 4.45 µM | 0.199 µM | 20.7 µM | 0.156 µM | 5.32 µM
Cn1c(C(=O)c2ccncc2)cc2ccccc21 | > 100 µM | > 100 µM | > 100 µM | > 100 µM | > 100 µM | > 100 µM | 72.9 µM | > 100 µM | 78.1 µM | > 100 µM | 37.5 µM | > 100 µM | 59.3 µM | > 100 µM | 90.9 µM | > 100 µM | > 100 µM | > 100 µM | 54.4 µM | > 100 µM
Cc1nn[n-]n1.N.N.N.N.N.[Cl-].[Co+3] | > 100 µM | > 100 µM | > 100 µM | > 100 µM | > 100 µM | > 100 µM | > 100 µM | > 100 µM | > 100 µM | > 100 µM | > 100 µM | > 100 µM | > 100 µM | > 100 µM | > 100 µM | > 100 µM | > 100 µM | > 100 µM | > 100 µM | > 100 µM
